Key:
[1] = tested on: Human immunodeficiency virus 1; test: Inhibition of HIV1-induced cytopathogenicity in CEM/0 cells; assay type: functional, organism-based; details: Human immunodeficiency virus 1, CCRF-CEM
[2] = tested on: Human immunodeficiency virus 2; test: Inhibition of HIV2-induced cytopathogenicity in CEM/0 cells; assay type: functional, organism-based; details: Human immunodeficiency virus 2, CCRF-CEM
[3] = Cytotoxicity against CEM/0 cells; assay type: cell-based, CCRF-CEM; details: human

EC50 [1] [µM]	EC50 [2] [µM]	SMILES	CC50 [3] [µM]
25	25	C[C@@H](NP(=O)(OC[C@@H]1C=C[C@H](n2ccc(=O)[nH]c2=O)O1)Oc1cccc2ccccc12)C(=O)OCc1ccccc1 (some centres not stated)	100
> 250	> 250	C[C@@H](NP(=O)(OC[C@@H]1C=C[C@H](n2ccc(=O)[nH]c2=O)O1)Oc1ccccc1)C(=O)OC(C)(C)C (some centres not stated)	> 250
15	20	C[C@@H](NP(=O)(OC[C@@H]1CC[C@H](n2ccc(=O)[nH]c2=O)O1)Oc1cccc2ccccc12)C(=O)OCc1ccccc1 (some centres not stated)	96.9
> 50	> 50	CCOC(=O)[C@@H](C)NP(=O)(OC[C@@H]1C=C[C@H](n2ccc(=O)[nH]c2=O)O1)Oc1ccccc1 (some centres not stated)	212
> 50	> 10	COC(=O)[C@@H](C)NP(=O)(OC[C@@H]1C=C[C@H](n2ccc(=O)[nH]c2=O)O1)Oc1ccccc1 (some centres not stated)	96.6
> 250	> 250	C[C@@H](NP(=O)(OC[C@@H]1CC[C@H](n2ccc(=O)[nH]c2=O)O1)Oc1ccccc1)C(=O)OC(C)(C)C (some centres not stated)	> 250
	0.77	Cc1cn([C@H]2C=C[C@@H](CO)O2)c(=O)[nH]c1=O [STAVUDINE]	174
> 250	> 250	O=c1ccn([C@H]2CC[C@@H](CO)O2)c(=O)[nH]1	> 250
43.3	93.3	CCOC(=O)[C@@H](C)NP(=O)(OC[C@@H]1CC[C@H](n2ccc(=O)[nH]c2=O)O1)Oc1ccccc1 (some centres not stated)	> 250
> 50	> 50	O=c1ccn([C@H]2C=C[C@@H](CO)O2)c(=O)[nH]1	207
36.7	≥ 50	COC(=O)[C@@H](C)NP(=O)(OC[C@@H]1CC[C@H](n2ccc(=O)[nH]c2=O)O1)Oc1ccccc1 (some centres not stated)	121
